The record followed here is publication PMC5794198, “Inhibitors of Trypanosoma cruzi Sir2 related protein 1 as potential drugs against Chagas disease” (PLoS Neglected Tropical Diseases, 2018).

One data set has as its system T. cruzi amastigotes. In words: High-content screening assay on intracellular T. cruzi amastigotes. The settings on record: Trypanosoma cruzi, C2C12, 72 h, Y strain in C2C12 host cells, 72 h; read-out: Anti-T. cruzi Activity Amastigotes (EC50 ± SD). In kind it is cell-based, Trypanosoma cruzi. In outline: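 C2C12 host cells were infected 24 hr with Y strain tissue culture-derived trypomastigotes, then exposed to compound for 72 hrs. After paraformaldehyde fixation and DAPI staining, high-content imaging segmented host nuclei and parasite kinetoplast DNA. Read-out was the average number of amastigotes per host cell.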

In a further data set the test system is Neurons. In words: HCS injury score panel in primary neurons. In kind it is cell-based. The protocol:
In vitro assays were also performed in primary cells (hepatocytes and neurons) to evaluate BNIPSpd (9) potential toxicity: (a) host cell nuclei counting after HOECHST staining, (b) viability by measuring the metabolism of WST-8 probe, (c) apoptosis induction through caspase 3/7 activation, (d) evaluation of mitochondrial dysfunction by measuring the membrane potential using TMRM probe, (e) membrane integrity by measuring the extracellular LDH, (f) DNA damage by histone H2AX phosphorylation (exclusively in hepatocytes) and (g) imaging of neurite outgrowth (exclusively in neurons).
The assays were performed 24 hrs after cell collection and isolation. For apoptosis, TMRM, HOECHST and WST-8 assays, cells were seeded at a density of 5000 cells/well in coated 96-well plates, incubated for 24 hrs with the compound and then stained during 1 hour with the following fluorescent probes: 5 μM CellEvent Caspase 3/7 Green Detection Reagent (Invitrogen) for measuring caspase 3/7 activation, 50 μM tetramethyl rhodamine methyl ester (TMRM probe, Anaspec Inc.) for measuring mitochondrial depolarization related to transient cytosolic Ca^2+ signals, 5 μg/mL of HOECHST (Sigma-Aldrich) for nuclei detection and 10 μL/well of WST-8 reagent (Sigma-Aldrich) to detect viable cells. Then, absorbance at 450 nm was measured in order to analyse cell viability (WST-8). Cells were washed three times and analysed using the automatic fluorescence microscope BD Pathway 855. Pictures were taken using a 20 X objective and 488/515 nm ex/em filters for CellEvent Caspase 3/7 reagent, 555/ 645 nm ex/em filters for TMRM and 380/460 nm ex/em filters for HOECHST. Data were analysed with AttoVision (Becton Dickinson). The LDH assay was performed according to the manufacturer's protocol, Cytotoxicity Detection Kit LDH (Roche). LDH release was measured in mU/L in culture media obtained from cells subjected to treatments for 24 hrs, by measuring the released LDH rate of oxidation of NADH to NAD^+ at 340 nm using Synergy 2 from BioTech.
For the neurite outgrowth assay, samples were washed with PBS, fixed using methanol for 10 mins at -20°C. The fixed samples were washed three times with PBS and permeabilized with PBS-Triton X-100 0.3% for 10 mins, washed three times and then blocked with BSA 0.5% in PBS for 30 mis. […] Neurite average length was calculated using the neurite outgrowth module of AttoVision software (Becton Dickinson).
Nimesulide (400 μM) was included as a positive toxicity control, and the vehicle as a negative control. The relative percentage of deviation from the negative control was quantified and assigned with a number from 0 to 5 according to the following criteria: 0 (0–20% deviation), 1 (20–40%), 2 (40–60%), 3 (60–100%), 4 (100–1000%), or 5 (>1000% deviation). […]

Data set [1] can be described thus: Snapshot pharmacokinetics in blood after intravenous injection. In kind it is in vivo, BALB/c mice. The settings on record: 5 mg/kg intravenous. The protocol:
The pharmacokinetic profile of BNIPSpd was determined following intravenous injection of 5 mg/kg in BALB/c mice. The blood was collected from tail veins after 0, 5, 15, 30, 45 min, 1, 3, 24, 48 and 72 h of drug administration. Blood concentrations of the drug were analysed by UHPLC- ESI-MS/MS.
Supplementary file pntd.0006180.s006.tif: S5 Fig In vivo efficacy testing of BNIPSpd (9). A) Mice were infected with 10^4 Luc^+ trypomastigotes by intraperitoneal injection. Treatments (BZN, benznidazole at 100 mg/kg/day per os, and BNIPSpd (9) at 5 mg/kg/day by intravenous injection) were initiated 7 days after infection, as well as the respective controls (KP, Kolliphor HS 15 20% per os and DMSO 10% by intravenous injection). […] In the lower panel, bioluminescence signal of whole mice represented in average radiance (photons/sec/cm^2/sr) quantified before and after treatment. […] B) Snapshot Pharmacokinetics of BNIPSpd (9) in BALB/c mice by quantification of BNIPSpd (9) in the blood of mice by UHPLC-MS/MS ESI+ at different time-points after administration of a 5 mg/kg dose by intravenous injection. […] The dashed line represents the value of EC50 for BNIPSpd (9) in the in vitro assay against T. cruzi amastigotes, and the dotted line represents the lower limit of quantification of the technique. […]

“Also recorded” adds a separate entry of the source.

In the case of `O=C1c2cccc3cccc(c23)C(=O)N1CCCNCCCCNCCCNCCCN1C(=O)c2cccc3cccc(c23)C1=O` [Compound 9, BNIP Spermidine], the EC50 with T. cruzi amastigotes was 2.84 ± 0.18 µM. In the data set with Neurons (HCS panel), the “Concentration from which toxicity was most significant in neurons” value stood at 12.5 µM and the “Concentration up to which no effects in neurons” value was 0.7 µM. In the data set with Neurons (at higher concentrations (50 μM)), the “Injury score for neurons” value is given as “high levels”. Further, the “Injury score for neurons” value in the data set with Neurons (combined score of cytotoxicity panel, 24 hrs) was “moderate injury (moderate injury (≥5-to <12))”. Besides, the “Highest plasma concentration detected” value in data set [1] (at the 5 min time-point) was 1.70 µM. In data set [1] (3 h up to 72 h, lower limit of quantification 8.1 nM, listed as BNIPSpd (9)), the “Blood level after the 3 h time-point” value is recorded as “below the level of detection; also recorded: no longer detected”.
